Literature values as cited in US8859761B2, “Refining process of Cefamandole sodium” (Hainan Lingkang Pharmaceutical Co., Ltd., priority 2011, dated 2014).

Cn1nnnc1SCC1=C(C(=O)[O-])N2C(=O)C(NC(=O)C(OC=O)c3ccccc3)C2SC1.[Na+] [Cefamandole nafate, sodium 7-D-(2-formyloxyphenylacetamide)-3-[(1-methyl-1H-tetrazol-5-yl)thiomethyl]-3-cephem-4-carboxylate]
solubility in ethanol (ethanol): almost insoluble
solubility in water (water): dissolves well
